According to ChEMBL document CHEMBL3352142, “Discovery of a new class of cinnamyl-triazole as potent and selective inhibitors of aromatase (cytochrome P450 19A1)” (Bioorg Med Chem Lett, 2014):

Experiments:
Aromatase [1] = target: T1, Aromatase (Homo sapiens, UniProt P11511); assay: Irreversible inhibition of recombinant human CYP19A1 assessed as inhibition of DBF conversion to fluorescein by-product by fluorometry
T1 sequence (P11511 whole entry): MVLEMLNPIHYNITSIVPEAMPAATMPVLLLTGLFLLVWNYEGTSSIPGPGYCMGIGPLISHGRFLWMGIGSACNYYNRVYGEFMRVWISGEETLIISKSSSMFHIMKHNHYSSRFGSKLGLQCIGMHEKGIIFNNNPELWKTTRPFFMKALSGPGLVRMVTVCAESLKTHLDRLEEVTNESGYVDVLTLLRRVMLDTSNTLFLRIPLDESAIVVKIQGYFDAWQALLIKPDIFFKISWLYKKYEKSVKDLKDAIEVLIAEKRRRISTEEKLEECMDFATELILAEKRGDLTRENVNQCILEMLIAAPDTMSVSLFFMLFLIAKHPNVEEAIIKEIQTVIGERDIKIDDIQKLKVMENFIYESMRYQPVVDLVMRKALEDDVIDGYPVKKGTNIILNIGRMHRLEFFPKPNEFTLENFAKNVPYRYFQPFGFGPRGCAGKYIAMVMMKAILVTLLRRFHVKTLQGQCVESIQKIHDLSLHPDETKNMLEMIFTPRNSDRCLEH

Aromatase [2] = target: T1, Aromatase; assay: Reversible inhibition of recombinant human CYP19A1 assessed as inhibition of DBF conversion to fluorescein by-product by fluorometry
Aromatase [3] = target: T1, Aromatase
Description: Inhibition of recombinant human CYP19A1 assessed as inhibition of DBF conversion to fluorescein by-product by fluorometry

SMILES	Ki (Aromatase [3]) [nM]	also measured
CCOC(=O)c1nnn(Cc2ccccc2)c1-c1ccccc1	–	Ki (Aromatase [1]): 1410 nM
CCOC(=O)c1nnn(Cc2ccccc2)c1-c1ccc(Br)cc1	–	Ki (Aromatase [2]): 640 nM
CCOC(=O)c1nnn(Cc2cccc(Br)c2)c1-c1ccc(Br)cc1	–	Ki (Aromatase [2]): 20 nM
CCOC(=O)c1nnn(Cc2ccccc2)c1-c1ccc2c(c1)OCO2	710	–
CCOC(=O)c1nnn(Cc2cccc(Br)c2)c1-c1ccccc1	150	–

Further lines, with some results ahead:

Ki (Aromatase [3]) [nM]	SMILES	also measured
710	CCOC(=O)c1nnn(Cc2ccccc2)c1-c1ccc(C)cc1	–
360	CCOC(=O)c1nnn(Cc2ccccc2)c1-c1ccc(Cl)cc1	–
